Experimental data from patent US20230165867A1 (CHENGDU BAIYU PHARMACEUTICAL CO., LTD., priority 2020, published 2023).
Read-outs that look alike come from different tables or passages of the source.

Assays:
[1] = Pharmacokinetic assay in ICR mice (i.v. and p.o.); assay type: in vivo; conditions: mouse, plasma, male ICR mice; for half-life: read-out: T½ (converted); for bioavailability: po 10 mg/kg vs iv 1 mg/kg
Protocol: ICR mice were purchased from Beijing Vital River Laboratory Animal Technology Co., Ltd.
3.2 Experimental procedure • (1) Healthy male ICR mice (18-22 g) were prepared, with 18 mice for each compound. The mice were divided into 2 groups (an i.v. group and a p.o. group), with 9 mice per group. 3 mice were picked for blood collection at each time point. • (2) After the animals were fasted overnight (with free access to water), the compound of the present invention dissolved (or suspended) in a solvent of 5% DMSO and 95% 30% HP-β-CD (v:v) was administered via the tail vein (i.v., 1 mg/kg) or intragastrically (p.o., 10 mg/kg), respectively. • (3) For the i.v. group, 0.1 mL blood was collected from the submandibular vein 5 min, 15 min, 0.5 h, 1 h, 2 h, 4 h, 8 h, 12 h, and 24 h after administration, respectively, anticoagulated with EDTA-K2, and centrifuged at 4° C. for 5 min to obtain plasma, which was stored at -20° C. until testing. (4) For the p.o. group, 0.1 mL blood was collected from the submandibular vein before administration and 15 min, 0.5 h, 1 h, 2 h, 4 h, 6 h, 8 h, 12 h, and 24 h after administration, and treated in the same manner as that for the intravenous group. • (5) The concentration of the compound of the present invention in plasma was measured by LC/MS/MS. • (6) Calculation and fitting were performed with Analyst 1.6 from AB Company, and the results are shown in Table 3.

[2] = Metabolic stability in liver microsomes; assay type: in vitro ADME, human; conditions: human, human liver microsomes; 0.5 µM test substance, 0.5 mg/mL microsomes, NADPH and UDPGA, 37° C.; read-out: T½(min), stability in human liver microsomes
Protocol: Liver microsomes (purchased from Reed Liver Disease Research (Shanghai) Co., Ltd., product: human liver microsomes (NJT)); NADPH (purchased from Roche, Lot: 40939); UDPGA; the compounds of the present invention (test substances).
• (1) A mixed working solution of testosterone (0.5 µM) and 7-hydroxycoumarin (0.5 µM) was prepared. • (2) A mixed solution of NADPH (1 mM) and UDPGA (1 mM) was prepared, and prewarmed at 37° C. in a water bath shaker before use. • (3) Liver microsomes were thawed and diluted with a buffer. • (4) A preparation of a test substance (0.5 µM) and a solution of liver microsomes (0.5 mg/mL) were added to each well of an incubation plate. • (5) Three experimental groups were set and samples were added. Test group: the test substance was incubated with liver microsomes for 0 min, 30 min, 60 min, and 120 min in the presence of the coenzyme NADPH and UDPGA; Positive control group: testosterone (0.5 µM) and 7-hydroxycoumarin (0.5 µM) were incubated with microsomes for 0 min and 120 min in the presence of the coenzyme NADPH and UDPGA; Negative control group: the test substance was incubated with microsomes for 0 and 120 min without any coenzyme. • (6) All samples were incubated at 37° C., and pre-cooled methanol was added at each termination time (0, 15, 30, 45, 60 min, 120 min) to terminate the reaction, and the time was recorded. • (7) All samples were mixed well and centrifuged at 4000 rpm for 10 min. The supernatant was taken and measured by LC-MS/MS for the amount of the test substance remaining in the samples. Data analysis was carried out as follows: T½=0.693 /k, Clint = (0.693/T½) × (1 /(microsomal protein) × Scaling Factors), Note: k is the slope of the logarithm of the remaining amounts of compound versus time.

[3] = target: T1, DNA-PK kinase (Homo sapiens, UniProt P78527); assay: Inhibition assay of DNA-PK kinase (Promega kit, ADP-Glo chemiluminescence); assay type: biochemical; conditions: 50 µM ATP, 37° C., 60 min; read-out: IC50 (nM), inhibitory activity on DNA-PK kinase
T1 construct: purchased Promega V4107
Method in brief: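 Compounds incubated with DNA-PK at 37° C for 60 min; reaction stopped with ADP-Glo reagent (40 min, RT), then kinase detection reagent (30 min, RT). ADP formed read by luminescence against an ADP standard curve.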

AUC ([1]; iv, 1 mg/kg) [ng·h/mL]	half-life ([1]; iv, 1 mg/kg) [h]	bioavailability [1] [%]	AUC ([1]; po, 10 mg/kg) [ng·h/mL]	Cmax ([1]; po, 10 mg/kg) [ng/mL]	half-life ([1]; po, 10 mg/kg) [h]	half-life at 0.5 µM [2] [min]	IC50 [3] [nM]	SMILES
323	0.41	51.4	1660	1490	1.34	> 120	0.47	COc1cc(C)c(Nc2ncc3c(n2)n(C2CCOCC2)c(=O)n3C)cn1 [Compound 9, 2-((6-methoxy-4-methylpyridin-3-yl)amino)-7-methyl-9-(tetrahydro-2H-pyran-4-yl)-7,9-dihydro-8H-purin-8-one]
639	1.52	110	7100	2730	2.99	> 120	7.6	Cn1c(=O)n(C2CCOCC2)c2nc(Nc3ccc(C(N)=O)cc3Cl)ncc21 [Compound 26, 3-Chloro-4-((7-methyl-8-oxo-9-(tetrahydro-2H-pyran-4-yl)-8,9-dihydro-7H-purin-2-yl)amino)benzamide]
609	0.46	42.1	2560	1820	1.22	> 120	3.9	CCNC(=O)c1ccc(Nc2ncc3c(n2)n(C2CCOCC2)c(=O)n3C)c(C)c1 [Compound 29, N-ethyl-3-methyl-4-((7-methyl-8-oxo-9-(tetrahydro-2H-pyran-4-yl)-8,9-dihydro-7H-purin-2-yl)amino)benzamide]
269	0.341	47.7	1310	2200	1.02	> 120	0.47	[2H]C([2H])([2H])Oc1cc(C)c(Nc2ncc3c(n2)n(C2CCOCC2)c(=O)n3C)cn1 [Compound 38, 2-((6-(methoxy-d3)-4-methylpyridin-3-yl)amino)-7-methyl-9-(tetrahydro-2H-pyran-4-yl)-7,9-dihydro-8H-purin-8-one]
230	1.41	70	1500	858	1.73	> 120	2.05	Cc1sc(C(N)=O)cc1Nc1ncc2c(n1)n(C1CCOCC1)c(=O)n2C [Compound 42, 5-Methyl-4-((7-methyl-8-oxo-9-(tetrahydro-2H-pyran-4-yl)-8,9-dihydro-7H-purin-2-yl)amino)thiophene-2-carboxamide]
–	–	–	–	–	–	> 120	1.96	Cc1cc(C(N)=O)c(C(F)(F)F)cc1Nc1ncc2c(n1)n(C1CCOCC1)c(=O)n2C [Compound 48, 5-Methyl-4-((7-methyl-8-oxo-9-(tetrahydro-2H-pyran-4-yl)-8,9-dihydro-7H-purin-2-yl)amino)-2-(trifluoromethyl)benzamide]
–	–	–	–	–	–	> 120	0.32	CCOc1cc(Nc2ncc3c(n2)n(C2CCOCC2)c(=O)n3C)c(C)cc1C(N)=O [Compound 53, 2-Ethoxy-5-methyl-4-((7-methyl-8-oxo-9-(tetrahydro-2H-pyran-4-yl)-8,9-dihydro-7H-purin-2-yl)amino)benzamide]
840	5.22	63.9	5370	2060	3.21	> 120	8.07	CNC(=O)c1cc(C)c(Nc2ncc3c(n2)n(C2CCOCC2)c(=O)n3C)cn1 [Compound 54, N,4-Dimethyl-5-((7-methyl-8-oxo-9-(tetrahydro-2H-pyran-4-yl)-8,9-dihydro-7H-purin-2-yl)amino)picolinamide]
–	–	–	–	–	–	> 120	3.98	COc1cc(Nc2ncc3c(n2)n(C2CCOCC2)c(=O)n3C)c(C)cc1C(N)=O [Compound 57, 2-Methoxy-5-methyl-4-((7-methyl-8-oxo-9-(tetrahydro-2H-pyran-4-yl)-8,9-dihydro-7H-purin-2-yl)amino)benzamide]
–	–	–	–	–	–	> 120	1.25	Cc1cc(C(N)=O)c(F)cc1Nc1ncc2c(n1)n(C1CCCOC1)c(=O)n2C (stereo not drawn) [Compound 69, 2-fluoro-5-methyl-4-((7-methyl-8-oxo-9-(tetrahydro-2H-pyran-3-yl)-8,9-dihydro-7H-purin-2-yl)amino)benzamide]
109	0.31	69.2	756	984	2.1	> 120	5.69	Cc1cc(C(N)=O)c(F)cc1Nc1ncc2c(n1)n([C@H]1CCOC1)c(=O)n2C [Compound 75, (S)-2-fluoro-5-methyl-4-((7-methyl-8-oxo-9-(tetrahydrofuran-3-yl)-8,9-dihydro-7H-purin-2-yl)amino)benzamiderile]
120	0.3	104	1360	1570	0.93	> 120	1.96	Cc1cc(C(N)=O)c(F)cc1Nc1ncc2c(n1)n([C@@H]1CCOC1)c(=O)n2C [Compound 76, (R)-2-fluoro-5-methyl-4-((7-methyl-8-oxo-9-(tetrahydrofuran-3-yl)-8,9-dihydro-7H-purin-2-yl)amino)benzamiderile]
545	1.55	108	5970	1750	3.24	> 120	4.67	Cc1cc(C(N)=O)c(F)cc1Nc1ncc2c(n1)n([C@H]1CC[C@@H](C#N)CC1)c(=O)n2C [Compound 77, 4-((9-(cis-4-cyanocyclohexyl)-7-methyl-8-oxo-8,9-dihydro-7H-purin-2-yl)amino)-2-fluoro-5-methylbenzamide]
–	–	–	–	–	–	> 120	47.1	Cc1cc(C(N)=O)c(F)cc1Nc1ncc2c(n1)n(C1CCNCC1)c(=O)n2C [Compound 81, 2-Fluoro-5-methyl-4-((7-methyl-8-oxo-9-(piperidin-4-yl)-8,9-dihydro-7H-purin-2-yl)amino)benzamide]
–	–	–	–	–	–	> 120	24.5	Cc1cc(C(N)=O)c(F)cc1Nc1ncc2c(n1)n(C1CCN(C)CC1)c(=O)n2C [Compound 82, 2-Fluoro-5-methyl-4-((7-methyl-9-(1-methylpiperidin-4-yl)-8-oxo-8,9-dihydro-7H-purin-2-yl)amino)benzamide]
–	–	–	–	–	–	> 120	0.43	Cc1cc(C(N)=O)c(F)cc1Nc1ncc2c(n1)n(C1CCC(F)(F)CC1)c(=O)n2C [Compound 83, 4-((9-(4,4-difluorocyclohexyl)-7-methyl-8-oxo-8,9-dihydro-7H-purin-2-yl)amino)-2-fluoro-5-methylbenzamide]
–	–	–	–	–	–	> 120	1.1	Cc1cc(C(N)=O)c(F)cc1Nc1ncc2c(n1)n(C1CC3CCC(C1)O3)c(=O)n2C (stereo not drawn) [Compound 85, 4-((9-(8-oxabicyclo[3.2.1]octan-3-yl)-7-methyl-8-oxo-8,9-dihydro-7H-purin-2-yl)amino)-2-fluoro-5-methylbenzamide]
–	–	–	–	–	–	> 120	0.75	Cc1cc(C(N)=O)c(F)cc1Nc1ncc2c(n1)n([C@H]1C[C@H](O)C1)c(=O)n2C [Compound 93, 2-Fluoro-4-((9-(trans-3-hydroxycyclobutyl)-7-methyl-8-oxo-8,9-dihydro-7H-purin-2-yl)amino)-5-methylbenzamide]
